According to US10188659B2, “IGF-1R signaling pathway inhibitors useful in the treatment of neurodegenerative diseases” (YISSUM RESEARCH DEVELOPMENT COMPANY OF THE HEBREW …, priority 2013, dated 2019):
Values joined by “and” are separate entries in the source; they are usually repeats but may differ in a detail not shown here. Identical values can stand only once.

Legend:
[1] = system: DAF-16::GFP expressing worms (strain TJ356); experiment: DAF-16 localization assay; format: in vivo, Caenorhabditis elegans; details: 300 μM, 6 hours
Protocol: Synchronized TJ356 worms were grown on the EV control bacteria. At the indicated ages (days 1 of adulthood), 25 worms were transferred onto daf-2 RNAi bacteria for the indicated time (6 h). […] (Molecular Probes), Invitrogen, Carlsbad, Calif., USA]. DAPI and GFP signals were visualized using a fluorescent microscope (Leica DM6000 B; Leica, Wetzlar, Germany). […] The worms were let hatched and develop on control bacteria harboring an empty vector (EV) (FIG. 1A) or on daf-2 RNAi bacteria (FIG. 1B). […] The worms were then fixed and stained with DAPI. […] Paralyzed worms were scored daily. […] The worms were placed on plates seeded with EV bacteria and exposed to 35° C. for 15 hours and survival rates were scored by counting the surviving worms. The results of a representative experiment (three repeats were performed) is presented on FIG. 3.

Aβ worms (strain CL2006) = experiment: Paralysis assay in Aβ worms; format: in vivo, Caenorhabditis elegans
CF512 worms [2] = experiment: Heat stress assay; format: in vivo, Caenorhabditis elegans; details: for stress resistance (survival): 300 μM, 3 hours at day 1, 35° C. for 15 hours
CF512 worms [3] = experiment: UV stress assay; format: in vivo, Caenorhabditis elegans; details: sub-lethal UV dose
AKT = experiment: IGF1-induced AKT phosphorylation, Western blot in A375 cells; format: cell-based, human
[4] = system: hsp-16.2 promoter (strain CL2070); experiment: hsp-16.2 promoter GFP induction after heat, Western blot; format: in vivo, Caenorhabditis elegans; details: CL2070 worms, 33° C. three hours
[5] = system: hsp-70 promoter (hsp-70p::GFP); experiment: hsp-70 promoter GFP induction after heat, fluorescent microscopy; format: in vivo, Caenorhabditis elegans; details: 600 μM, heat stress 33° C., 3 h
[6] = system: DAF-16, HSF-1 and SKN-1 target genes; experiment: Real-time quantitative PCR of IIS target genes; format: in vivo, Caenorhabditis elegans; details: CF512 worms, 600 μM, 3 hours days 1 and 2, vs control
Aβ [7] = experiment: Aβ aggregation, Western blot after high-speed centrifugation; format: in vivo, Caenorhabditis elegans; details: CL2006 worms, WB with 6E10 antibody
Aβ [8] = experiment: Aβ immunofluorescence in worms; format: in vivo, Caenorhabditis elegans; details: immuno-fluorescence
polyQ40-YFP worms = experiment: polyQ40-YFP foci count; format: in vivo, Caenorhabditis elegans
polyQ35-YFP worms = experiment: Motility assay (crawling speed); format: in vivo, Caenorhabditis elegans; details: 600 μM daily day 1 to 11
polyQ40-YFP = polyQ40-YFP aggregation (WB, high-speed pellets, native gel); format: in vivo, Caenorhabditis elegans
IRS1 and IRS2 = experiment: IRS1/IRS2 Ser-phosphorylation and degradation, Western blot in A375 cells

Oc1cc(CNC(=S)/C=C/c2cc(O)c(O)c(Br)c2)cc(O)c1O [Compound 29]
nuclear localization of DAF-16 (co-localization of DAPI and GFP signals) [1]: confirmed the nuclear localization of DAF-16 | paralysis rates (Aβ worms (strain CL2006); 300 μM, soaked 3 hours days 1 and 2, then daily 25 μl): increased in reduced rates compared to the untreated control | stress resistance (survival) (CF512 worms [2]): elevate stress resistance of CF512 worms

Oc1cc(CNC(=S)/C=C/c2ccc(O)c(O)c2Br)cc(O)c1O [Compound 39]
rate of paralyzed worms at day 12 (Aβ worms (strain CL2006); 600 μM compound (or daf-2 RNAi throughout), day 12 of adulthood): 29% | stress resistance (survival) (CF512 worms [2]): elevate stress resistance of CF512 worms | raise of survival rates compared to the untreated population (CF512 worms [2]; 15 hours at 35° C.): 33% | survival rate after heat stress (CF512 worms [2]; 15 hours at 35° C.): 72% and 71.7% | mean survival after UV radiation (days±SEM) (CF512 worms [3]): 8.76 ± 0.21 days | AKT phosphorylation, kinetic experiment (AKT): partial inhibition of AKT phosphorylation | IGF1-induced activation of AKT (phosphorylation on threonine 308 and serine 473) (AKT; A375 cells, short and long exposures): abolished the IGF1-induced activation of AKT | hsp-16.2 promoter driven GFP level ([4]; 150 μM): no detectable effect | hsp-16.2 promoter driven GFP level ([4]; 300 μM): moderate effect | hsp-16.2 promoter driven GFP level ([4]; 600 μM): remarkably increased the induction of GFP | hsp-16.2 promoter driven GFP level ([4]; 900 μM): lower effect than that of 600 μM | hsp-70 promoter driven GFP fluorescence [5]: elevated GFP fluorescence levels | average increase of expression of DAF-16 and SKN-1 target genes [6]: 19-37% | elevation of expression level of hsp-70 [6]: approximately 170% | high molecular-weight Aβ aggregates (Aβ [7]): elevated amount of high molecular-weight Aβ aggregates | Aβ amounts and distribution (Aβ [8]): enhanced the amount of Aβ and led to its accumulation in the central part of the animal's body | average number of polyQ40-YFP foci/worm (polyQ40-YFP worms): 52.78 foci/worm | average crawling speed at day 11 relative to day 1 of adulthood (polyQ35-YFP worms): 32.9% | polyQ40-YFP aggregation, YFP fluorescence on native gel (polyQ40-YFP; 1% native gel): did not exhibit elevated rates of polyQ40-YFP aggregation | aggregated polyQ40-YFP in high-speed pellets (polyQ40-YFP; WB after high-speed centrifugation): no increase was seen | SDS resistant polyQ40-YFP aggregates, whole worm homogenates (polyQ40-YFP; WB, GFP antibody, day 2): no such material could be detected | IRS1 and IRS2 protein levels (IRS1 and IRS2; long exposure (19 hours)): elimination of IRS1 and IRS2 | phosphorylation of IRS1 and IRS2 on serine residues (IRS1 and IRS2; short exposure (4 hours)): massive phosphorylation on serine residues
